The values below come from ChEMBL document CHEMBL5678795 (Eur J Pharmacol, 1999).

Molecules are shown by their SMILES. Calls of active or inactive are those of the source. The rule behind the calls is not given here.

Data set [1] addresses Type-1 angiotensin II receptor (Homo sapiens) (UniProt P30556). In words: Displacement of [125I][Sar1,Ile8]-AT-II from human recombinant angiotensin AT1 receptor at 10 uM incubated for 120 mins by radiometric based scintillation counter assay relative to control. (Displacement assays read how much labelled ligand stays bound in the presence of the test substance.)
For data set [2], the target named is Bombesin receptor (Rattus norvegicus) (UniProt P52500+P24053+Q8K418). In words: Displacement of [125I][Tyr4]bombesin from rat brain Bombesin receptor at 10 uM incubated for 60 mins by radiometric based scintillation counter assay relative to control. It is filed as tissue-based.
Data set [3] has as its target D(2) dopamine receptor (Homo sapiens) (UniProt P14416). As to the kind of experiment: Displacement of [3H]methyl-spiperone from human recombinant dopamine D2 receptor at 10 uM incubated for 60 mins by radiometric based scintillation counter assay relative to control.
The species named for data set [4] is Homo sapiens. In words: Displacement of [3H]BRL 43694 from human recombinant 5-Hydroxytryptamine 3 at 10 uM incubated for 120 mins by radiometric based scintillation counter assay relative to control.
Data set [5] has as its target 5-hydroxytryptamine receptor 7 (Homo sapiens) (UniProt P34969). As to the kind of experiment: Displacement of [3H]LSD from human recombinant 5-Hydroxytryptamine 7 at 10 uM incubated for 120 mins by radiometric based scintillation counter assay relative to control.
For data set [6], the target named is T1, Endothelin-1 receptor (Rattus norvegicus, UniProt P26684).
T1 sequence (P26684 whole entry): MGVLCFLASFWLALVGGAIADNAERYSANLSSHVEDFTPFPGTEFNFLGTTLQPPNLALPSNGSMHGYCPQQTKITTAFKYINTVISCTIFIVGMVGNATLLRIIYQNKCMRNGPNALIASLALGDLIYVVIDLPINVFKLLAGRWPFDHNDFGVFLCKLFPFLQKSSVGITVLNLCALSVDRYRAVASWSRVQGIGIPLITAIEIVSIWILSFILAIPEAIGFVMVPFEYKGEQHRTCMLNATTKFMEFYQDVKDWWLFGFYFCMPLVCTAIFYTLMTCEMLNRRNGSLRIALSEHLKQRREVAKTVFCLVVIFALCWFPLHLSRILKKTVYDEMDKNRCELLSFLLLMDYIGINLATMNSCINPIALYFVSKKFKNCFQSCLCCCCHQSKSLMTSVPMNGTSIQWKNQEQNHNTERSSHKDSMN
In words: Antagonist activity at ETA receptor in endothelin-1 stimulated rat MMQ cells assessed as inhibition of phosphatidylinositol hydrolysis in presence of myo-[3H] inositol by anion exchange chromatography. Format: functional, cell-based.

The target in data set [7] is Endothelin receptor type B (Oryctolagus cuniculus) (UniProt Q9N0W7). In words: Antagonist activity to ETB receptor in rabbit pulmonary artery assessed as induction of vessel ring contraction preincubated for 15 mins. Format: functional, tissue-based.
Data set [8] can be described thus: Half life in Sprague-Dawley rat at 5 mg/kg, iv administered for 12 hrs by HPLC analysis. Format: ADME, organism-based. Conditions: in vivo.
A short description of data set [9]: Half life in cynomolgus monkey at 5 mg/kg, po administered for 12 hrs by HPLC analysis. It is filed as ADME, organism-based, Macaca fascicularis. Conditions: in vivo.
A short description of data set [10]: Cmax in Sprague-Dawley rat at 10 mg/kg, po administered for 12 hrs by HPLC analysis. Format: ADME, organism-based. Conditions: in vivo.
Data set [11] is described as follows: Cmax in cynomolgus monkey at 5 mg/kg, po administered for 12 hrs by HPLC analysis. Format: ADME, organism-based, Macaca fascicularis. Conditions: in vivo.
Data set [12] is described as follows: Oral bioavailability in Beagle dog at 5 mg/kg administered for 12 hrs by HPLC analysis. It is filed as ADME, organism-based, Canis lupus familiaris. Conditions: in vivo.
For data set [13], the target named is T2, Endothelin-1 receptor (Rattus norvegicus) (UniProt P26684).
T2 sequence (whole entry): T1 sequence (P26684 whole entry)
In words: In vivo antagonist activity to ETA receptor in endothelin-1 induced Sprague-Dawley rat assessed as inhibition of peak blood pressure administered for 1 to 4 hrs. It is filed as functional, organism-based. Conditions: dose 3-100 mg/kg, route po, time 1-4 hrs.

Data set [14] deals with T2, Endothelin-1 receptor (Rattus norvegicus). In words: In vivo antagonist activity to ETA receptor in endothelin-1 induced Sprague-Dawley rat assessed as inhibition of transient depressor response at 100 mg/kg, po administered for 4 hrs. It is filed as functional, organism-based.

Sequence of Endothelin receptor type B (Oryctolagus cuniculus) (Q9N0W7 whole entry): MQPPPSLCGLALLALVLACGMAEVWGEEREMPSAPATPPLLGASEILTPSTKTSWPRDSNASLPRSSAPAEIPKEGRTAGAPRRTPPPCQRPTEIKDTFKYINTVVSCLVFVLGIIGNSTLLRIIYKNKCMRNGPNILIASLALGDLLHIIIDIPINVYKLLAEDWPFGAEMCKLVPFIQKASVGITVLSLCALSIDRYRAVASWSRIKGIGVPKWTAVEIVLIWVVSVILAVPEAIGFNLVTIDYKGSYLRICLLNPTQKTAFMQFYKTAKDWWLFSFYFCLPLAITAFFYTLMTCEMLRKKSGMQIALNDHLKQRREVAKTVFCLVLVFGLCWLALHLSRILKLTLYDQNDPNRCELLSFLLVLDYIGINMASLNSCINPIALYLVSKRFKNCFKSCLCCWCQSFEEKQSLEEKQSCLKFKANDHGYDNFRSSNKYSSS
Sequence of 5-hydroxytryptamine receptor 7 (Homo sapiens) (P34969 whole entry): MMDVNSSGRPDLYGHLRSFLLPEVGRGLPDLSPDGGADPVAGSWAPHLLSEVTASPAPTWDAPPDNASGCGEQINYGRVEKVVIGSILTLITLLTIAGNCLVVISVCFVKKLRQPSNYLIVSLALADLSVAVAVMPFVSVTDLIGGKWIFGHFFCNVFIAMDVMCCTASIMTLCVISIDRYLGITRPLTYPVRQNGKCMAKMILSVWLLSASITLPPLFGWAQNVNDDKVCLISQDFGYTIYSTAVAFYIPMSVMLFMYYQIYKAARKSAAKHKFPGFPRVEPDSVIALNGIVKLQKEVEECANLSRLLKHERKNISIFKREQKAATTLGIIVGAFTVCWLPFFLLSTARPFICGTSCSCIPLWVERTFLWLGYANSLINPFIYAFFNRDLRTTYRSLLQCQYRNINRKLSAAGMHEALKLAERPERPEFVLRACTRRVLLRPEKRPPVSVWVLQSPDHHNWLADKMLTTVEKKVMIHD
Sequence of D(2) dopamine receptor (Homo sapiens) (P14416 whole entry): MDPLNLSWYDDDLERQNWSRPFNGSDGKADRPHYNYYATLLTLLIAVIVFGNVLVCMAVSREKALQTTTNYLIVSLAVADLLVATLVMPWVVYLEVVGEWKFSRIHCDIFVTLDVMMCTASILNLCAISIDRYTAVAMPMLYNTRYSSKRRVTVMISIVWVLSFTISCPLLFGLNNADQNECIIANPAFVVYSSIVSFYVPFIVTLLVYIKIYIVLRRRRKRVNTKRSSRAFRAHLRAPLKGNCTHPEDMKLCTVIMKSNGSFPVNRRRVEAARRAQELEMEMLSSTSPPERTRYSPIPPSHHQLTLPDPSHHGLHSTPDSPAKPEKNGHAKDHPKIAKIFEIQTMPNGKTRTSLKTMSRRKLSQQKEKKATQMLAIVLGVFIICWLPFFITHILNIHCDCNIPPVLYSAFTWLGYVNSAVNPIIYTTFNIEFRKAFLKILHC
Sequence of Type-1 angiotensin II receptor (Homo sapiens) (P30556 whole entry): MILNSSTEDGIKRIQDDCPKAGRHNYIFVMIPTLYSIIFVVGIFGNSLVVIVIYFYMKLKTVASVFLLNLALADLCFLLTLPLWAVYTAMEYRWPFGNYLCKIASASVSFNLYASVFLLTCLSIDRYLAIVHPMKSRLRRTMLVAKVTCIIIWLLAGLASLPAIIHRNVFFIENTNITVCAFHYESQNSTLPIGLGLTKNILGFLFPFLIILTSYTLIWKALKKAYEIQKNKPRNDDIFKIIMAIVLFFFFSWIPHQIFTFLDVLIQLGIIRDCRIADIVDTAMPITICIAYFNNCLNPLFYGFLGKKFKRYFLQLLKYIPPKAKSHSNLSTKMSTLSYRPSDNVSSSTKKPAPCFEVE
Sequence of Bombesin receptor (Rattus norvegicus) (P24053 whole entry, looked up): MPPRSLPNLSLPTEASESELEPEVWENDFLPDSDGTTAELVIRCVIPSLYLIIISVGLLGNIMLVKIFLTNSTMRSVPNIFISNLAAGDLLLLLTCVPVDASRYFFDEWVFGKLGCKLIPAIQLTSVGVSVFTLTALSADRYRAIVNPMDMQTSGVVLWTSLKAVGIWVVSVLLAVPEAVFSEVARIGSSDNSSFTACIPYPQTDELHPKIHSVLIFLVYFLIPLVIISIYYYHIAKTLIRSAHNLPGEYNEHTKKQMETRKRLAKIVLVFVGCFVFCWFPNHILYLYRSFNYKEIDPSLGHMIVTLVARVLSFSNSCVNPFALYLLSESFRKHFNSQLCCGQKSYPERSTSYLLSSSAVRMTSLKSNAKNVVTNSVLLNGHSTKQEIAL
Sequence of Bombesin receptor (Rattus norvegicus) (P52500 whole entry, looked up): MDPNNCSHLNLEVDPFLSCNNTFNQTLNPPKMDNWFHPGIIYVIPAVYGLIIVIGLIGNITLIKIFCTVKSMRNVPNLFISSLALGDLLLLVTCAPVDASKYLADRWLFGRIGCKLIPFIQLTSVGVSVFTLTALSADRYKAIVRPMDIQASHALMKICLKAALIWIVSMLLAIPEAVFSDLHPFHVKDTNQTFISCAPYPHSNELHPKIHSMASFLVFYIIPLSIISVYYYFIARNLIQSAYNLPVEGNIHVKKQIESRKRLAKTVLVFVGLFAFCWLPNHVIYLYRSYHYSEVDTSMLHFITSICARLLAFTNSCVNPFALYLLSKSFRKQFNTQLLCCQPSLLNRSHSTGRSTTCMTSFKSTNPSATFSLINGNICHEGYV
Sequence of Bombesin receptor (Rattus norvegicus) (Q8K418 whole entry, looked up): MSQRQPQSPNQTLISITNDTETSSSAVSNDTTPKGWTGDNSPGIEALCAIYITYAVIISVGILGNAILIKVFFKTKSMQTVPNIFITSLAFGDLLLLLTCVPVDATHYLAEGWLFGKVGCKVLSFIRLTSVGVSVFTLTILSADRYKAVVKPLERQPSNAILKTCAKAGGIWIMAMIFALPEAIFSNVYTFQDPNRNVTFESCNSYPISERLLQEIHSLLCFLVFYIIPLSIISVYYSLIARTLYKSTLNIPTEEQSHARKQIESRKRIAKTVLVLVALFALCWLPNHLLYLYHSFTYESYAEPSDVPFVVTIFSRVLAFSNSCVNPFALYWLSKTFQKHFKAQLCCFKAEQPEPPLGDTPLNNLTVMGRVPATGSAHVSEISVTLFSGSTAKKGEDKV

What is called inhibition is the drop in the measured response relative to a control, in per cent. For orientation: IC50 means the point on the concentration scale where inhibition reaches its midpoint. A word on the half-life: it is how long it takes for the measured level to halve. For orientation: Cmax means the peak of the concentration-time curve. In general, bioavailability refers to dose-corrected exposure relative to a reference, in per cent. Regarding `CCCCN(CCCC)C(=O)CN1[C@H](c2cc(OC)c3c(c2)OCO3)C[C@@H](C(=O)O)[C@@H]1CC(C)(C)CCC`, the inhibition in data set [1], in data set [2], in data set [3], in data set [4] and in data set [5] was less than 10% each time. The IC50 in data set [6] is 0.59 nM. Also, in data set [7], the outcome was inactive. Besides, the half-life in data set [8] is 1.6 h; in data set [9], 1 h. Further, the Cmax in [10] was 1690 ng/mL; in data set [11] it was 1100 ng/mL. The compound further gave a bioavailability in data set [12] of 19.9%. Moreover, the Activity entry in [13] was “Dose-Dependent Effect”. The result in data set [14] was Active.
